# In US6723523B2, “System and method for investigating the effect of chemical and other factors on cell movement” (University of Connecticut, priority 2000, dated 2004):
# Assays:
# [1] = tested on: Dictyostelium cells; experiment: Inhibition of chemotactic response to folic acid by cisplatin, ECIS/taxis; format: cell-based, Dictyostelium discoidium; details: increasing concentrations of cisplatin, folic acid as chemoattractant
# Method: These chambers were filled with 300 μL of a 0.5% solution of melted agarose prepared as described above. The thickness of the agarose layer is 4 mm. […]
# [2] = tested on: Dictyostelium discoidium strain NC4A2 cells; experiment: ECIS/taxis under-agarose chemotaxis assay, cell movement in a folate gradient; format: cell-based
# Method: Dictyostelium discoidium strain NC4A2 is an axenic cell line derived from the wild type NC4 line. The myosin II heavy chain mutant (HK323) was generated by homologous recombination to delete the coding portion of the gene in the NC4A2 cell line. Cells were maintained in HL5 media in 100 mm petri dishes with media changes every three days. Cells to be used for experimental procedures were harvested at mid-log phase. Cells were centrifuged at 200×g for 5 minutes at room temperature, re-suspended in fresh media and counted with a Z2 particle counter (Coulter, Miami, Fla.). Chambers were loaded with 10^6 cells per well.
# Chemotaxis assays were adapted from the under-agarose chemotaxis method. Briefly, a 0.5% solution of GTG agarose (FMC Corporation, Rockland, Me.) was prepared in 1×SM media (10 g Difco Bacto-Peptone, 10 g glucose, 1 g yeast extract, 1.9 g KH2PO4, 0.6 g K2HPO4, 0.43 g MgSO4 per liter, pH 6.5). For chemokinetic assays, 2×SM agarose media was premixed with an equal volume of 2× folic acid and then added to the chamber to harden.
# The chemoattractant folic acid (Research Organics, Inc. Cleveland, Ohio) stock at 100 mM was prepared by dissolving 0.44 g folate in 220 ul of 10 M NaOH. The final volume was adjusted to 10 ml with distilled water. The solution was filter sterilized through a 0.2 micron filter, aliquoted and stored frozen at −20° C. in the dark. The folate solution was adjusted to the appropriate concentration and added to wells one hour prior to the addition of cells to allow for establishment of the chemotactic gradient. […] Following this incubation, the cells were washed three times in PDF and then re-suspended in PDF before placement in the cell wells of ECIS/taxis chambers.
# The commercially available ECIS electrode configuration (Applied Biophysics, Inc., Troy, N.Y.) consists of 8 chambers per array, each with a large electrode and a small target electrode (see panel A of FIG. 2). These chambers were filled with 300 μL of a 0.5% solution of melted agarose prepared as described above. […]
# The chemoattractant was then loaded into one well in appropriate chambers and the gradient was allowed to form for one hour. […] Impedance to this current flow was measured and a resistance value was calculated according to established protocols. […] In the results presented below, the data is presented as normalized resistance, which is calculated as a fraction of the initial resistance of the chamber at the start of the experiment.
# A gradient was established by loading 1 mM folate into the chemoattractant well of a modified ECIS chamber, and one hour later Dictyostelium cells were placed in the adjacent cell well. […] In order to visualize the arrival of the cells at the target electrode, the cells exposed to folate were continuously monitored by video microscopy. […]
SMILES,effect on time of arrival of cells at the electrode [1],absolute number of cells that arrive at the electrode versus folate dose ([2]; folate 0.16 to 1 mM in chemoattractant well),time of arrival of cells at the target electrode after placement of cells in the cell well ([2]; gradient formed by 1 mM folate),average speed of cell movement to the target electrode ([2]; gradient from 1 mM folate),"time of first small resistance peak (initial cell spreading on the target electrode) ([2]; gradient from 1 mM folate in chemoattractant well, loaded 1 h before cells, wells 2 mm from electrode) [h]"
"N.N.[Cl][Pt][Cl] [cisplatin, Cisplatin]",delayed in a manner proportional to the dose of cisplatin,–,–,–,–
"Nc1nc2ncc(CNc3ccc(C(=O)N[C@@H](CCC(=O)O)C(=O)O)cc3)nc2c(=O)[nH]1 [folate, folic acid]",–,absolute number of cells that arrive decreases as the dose of folate used to establish the gradient decreases,approximately 3.5 hours,approximately 10 μm/min,3.75
